Entries after “also recorded” stand apart in the source; their conditions may differ.
Test system: male CD1 mice
Assay: Luciferase radiance in lung after pulmonary delivery of FFL mRNA-LNPs
Format: in vivo
Details: for potency as determined by the average radiance detected in mouse lungs: FFL mRNA-LNP, single intratracheal administration via nebulization, about 5 hours post-dose
Procedure: About 150 cationic lipids were tested. (FIG. 7). Each cationic lipid was used in preparing lipid nanoparticles encapsulating mRNA encoding firefly luciferase protein (FFL mRNA) according to methods known in the art. For example, suitable methods for mRNA encapsulation include methods described in International Publication Nos. WO2016/004318 and WO 2018/089801, which is hereby incorporated by reference in its entirety. The tested lipid nanoparticles comprised a lipid component consisting of a cationic lipid, a non-cationic lipid (DOPE), a PEG-modified lipid (DMG-PEG2K), and optionally cholesterol.
Lipid nanoparticle formulations comprising FFL mRNA were administered to male CD1 mice by a single intratracheal administration via nebulization using a Microsprayer®. At approximately 5 hours post-dose, the animals were dosed with luciferin by intraperitoneal injection and all animals were imaged using an IVIS imaging system to measure luciferase production in the lung. […] Some cationic lipids remarkably had greater than 50-fold increase in pulmonary protein expression as compared to other cationic lipids.

Row | SMILES | potency as determined by the average radiance detected in mouse lungs | potency as determined by the average radiance detected in mouse lungs (listed as REP-E3-E10) | historical radiance/expression of pulmonary-delivered FFL mRNA in LNP (LNP comprising the named cationic lipid, pulmonary-delivered (e.g., nebulized))
1 | CCCCC/C=C\C/C=C\CCCCCCCC(=O)OCC(COC(=O)CCCCCCC/C=C\C/C=C\CCCCC)(COC(=O)CCCCCCC/C=C\C/C=C\CCCCC)NCCS(=O)(=O)NCCCN(C)C [GL-TES-SA-DMP-E18-2] | performed particularly well; also recorded: particularly high potency |  | 
2 | CCCCC/C=C\C/C=C\CCCCCCCC(=O)OCC(COC(=O)CCCCCCC/C=C\C/C=C\CCCCC)(COC(=O)CCCCCCC/C=C\C/C=C\CCCCC)NCCS(=O)(=O)NCCN(C)C [GL-TES-SA-DME-E18-2, 2-((2-(N-(2-(dimethylamino)ethyl)sulfamoyl)ethyl)amino)-2-((((9Z,12Z)-octadeca-9,12-dienoyl)oxy)methyl)propane-1,3-diyl (9Z,9′Z,12Z,12′Z)-bis(octadeca-9,12-dienoate)] | performed particularly well; also recorded: particularly high potency |  | 
3 | CCCCCCCCOC(=O)CC(CC(=O)OCCCCCCCC)(OC(=O)CCN(C)C)C(=O)OCCCCCCCC [TL1-01D-DMA, trioctyl 2-((3-(dimethylamino)propanoyl)oxy)propane-1,2,3-tricarboxylate] | performed particularly well; also recorded: particularly high potency |  | 
4 | CCCCCCCCCCCCCCOC(=O)CC(CC(=O)OCCCCCCCCCCCCCC)(OC(=O)CCN(C)C)C(=O)OCCCCCCCCCCCCCC [TL1-04D-DMA] | performed particularly well; also recorded: particularly high potency |  | 
5 | CCCCCCCCC(O)CN(CCCC(=O)OCCN1CC(C)N(CCOC(=O)CCCN(CC(O)CCCCCCCC)CC(O)CCCCCCCC)CC1C)CC(O)CCCCCCCC (centres unmarked) [HEP-E3-E10] | performed particularly well | particularly high potency | 
6 | CCCCCCCCC(O)CN(CCCCC(=O)OCCN1CC(C)N(CCOC(=O)CCCCN(CC(O)CCCCCCCC)CC(O)CCCCCCCC)CC1C)CC(O)CCCCCCCC (centres unmarked) [HEP-E4-E10] | performed particularly well; also recorded: particularly high potency |  | 
7 | CC(C)CCCC(C)C1CCC2C3CC=C4CC(OC(=O)CCc5cnc[nH]5)CCC4(C)C3CCC12C (centres unmarked) [ICE, imidazole cholesterol ester, reference compound] |  |  | around 10^4 p/s/cm^2sr

From patent US12576030B2, “Compositions for delivery of codon-optimized mRNA” (Translate Bio, Inc., priority 2020, dated 2026)
